The NIST ThermoML archive (doi:10.1016/j.jct.2015.12.023)

Assay: mn = molality of the nth substance listed, in mol/kg
Settings: 100 kPa, Liquid; for speed of sound: Frequency=3 MHz, Sing-around technique in a fixed-path interferometer; for mass density: Vibrating tube method

CCCC[N+](CCCC)(CCCC)CCCC.[I-] [tetrabutylammonium iodide] + O
Settings	mass density, 288.15 K [kg/m3]	mass density, 293.15 K [kg/m3]	mass density, 298.15 K [kg/m3]	mass density, 303.15 K [kg/m3]	mass density, 308.15 K [kg/m3]	speed of sound, 288.15 K [m/s]	speed of sound, 293.15 K [m/s]	speed of sound, 298.15 K [m/s]	speed of sound, 303.15 K [m/s]	speed of sound, 308.15 K [m/s]
m1 = 0.01	1001.07	1000.16	998.97	997.53	995.95	1468.9	1484.9	1498.9	1511.1	1521.2
m1 = 0.02	1001.64	1000.72	999.53	998.07	996.49	1471.3	1487.1	1500.9	1512.9	1522.9
m1 = 0.03	1002.22	1001.29	1000.09	998.61	997.02	1473.6	1489.1	1502.8	1514.5	1524.4
m1 = 0.04	1002.83	1001.88	1000.67	999.19	997.58	1475.8	1491.3	1504.7	1516.3	1526
